The record followed here is ChEMBL document CHEMBL5226340, “Chemical Biology of Sortase A Inhibition: A Gateway to Anti-infective Therapeutic Agents” (J Med Chem, 2021).

≈ marks a conversion by molar mass, not a printed value. Starred links: 1 amine or outer side, 2 acyl side, 3 side chain; linkers in the order of their positions; H or OH if unused. Non-standard residues stand in square brackets, D forms with d. Residues, ends and D or L forms follow the SMILES beside them. X1 = C[C@@H](N[*:1])P(=O)(O)CCC(=O)[*:2]

For assay [1], the target named is T1, Sortase A (Staphylococcus aureus, UniProt Q9S446).
T1 sequence (Q9S446 whole entry): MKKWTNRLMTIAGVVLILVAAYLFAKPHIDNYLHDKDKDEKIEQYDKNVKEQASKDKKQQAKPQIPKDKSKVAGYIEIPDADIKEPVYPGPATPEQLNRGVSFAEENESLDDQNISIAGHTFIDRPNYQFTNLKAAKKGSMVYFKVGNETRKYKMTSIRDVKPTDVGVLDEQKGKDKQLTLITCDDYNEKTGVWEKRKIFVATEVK
Briefly: Inhibition of Staphylococcus aureus SrtA catalytic domain (60 to 206 residues) using Abz-LPETGDap(Dnp)-NH2 as substrate preincubated for 1 hr followed by substrate addition and measured immediately by FRET assay.

The target of assay [2] is T1, Sortase A. Put plainly: Inhibition of Staphylococcus aureus SrtA with 24 residues truncated from N-terminus using Abz-LPATG-Dap as substrate.
Assay [3] has as its target T1, Sortase A. Put plainly: Inhibition of Staphylococcus aureus SrtA (60 to 206 residues) using Abz-LPETG-Dap(Dnp)-NH2 as substrate incubated for 1 hr by FRET assay.
For assay [4], the target named is T1, Sortase A. Briefly: Inhibition of recombinant Staphylococcus aureus ATCC 6538p SrtA expressed in Escherichia coli TOP10 using Dabcyl-QALPETGEE-Edans as substrate incubated for 1 hr by fluorometric analysis.
Assay [5] deals with Staphylococcus aureus. Briefly: Antibacterial activity against Staphylococcus aureus ATCC 6538p assessed as inhibition of bacterial growth incubated overnight by spectrophotometer. It is filed as functional.
Assay [6] relates to Staphylococcus aureus. Put plainly: Antibacterial activity against Staphylococcus aureus. It is filed as functional.
The target in assay [7] is T2, Sortase A (Staphylococcus aureus) (UniProt Q9S446).
T2 sequence (whole entry): T1 sequence (Q9S446 whole entry)
Briefly: Binding affinity to Staphylococcus aureus SrtA assessed as kinact/ki.

Assay [8] deals with T2, Sortase A (Staphylococcus aureus). Briefly: Inhibition of Staphylococcus aureus SrtA expressed in Escherichia coli BL21 (DE3) cells using Abz-LPETG-Dap(Dnp) as substrate assessed as kinact/ki.
The test system of assay [9] is Staphylococcus aureus. Briefly: Antibacterial activity against Staphylococcus aureus SA113 by microbroth dilution assay. In kind it is functional.
Assay [10] deals with T1, Sortase A. Put plainly: Inhibition of C-terminal 6His-tagged recombinant Staphylococcus aureus SrtA with 1 to 59 residues truncated from N-terminus expressed in Escherichia coli BL21 (DE3) using dabcyl-QALPETGEE-edans as substrate preincubated for 1 hr followed by substrate addition and measured for 1 hr by FRET assay.
Assay [11] relates to Staphylococcus aureus. Briefly: Inhibition of biofilm formation in Staphylococcus aureus ATCC 29213 incubated for 24 hrs by crystal violet staining based analysis. The following applies: ATCC 29213, 24 h. It is filed as functional, organism-based.
Assay [12] addresses T1, Sortase A. Put plainly: Inhibition of recombinant Staphylococcus aureus SrtA deltaN59 using Dabcyl-[…]-Edans as substrate preincubated for 20 mins followed by substrate addition and measured after 1 hr by fluorescence based analysis.
In assay [13] the target is T1, Sortase A. Briefly: Inhibition of recombinant Staphylococcus aureus SrtA using Abz-LPETG-Dap(Dnp) as substrate.
In assay [14] the target is T1, Sortase A. Put plainly: Inhibition of Staphylococcus aureus SrtA.
For assay [15], the target named is T1, Sortase A. Put plainly: Inhibition of Staphylococcus aureus SrtA using EDANS-Dabcyl as substrate by FRET assay.

Take `O=c1c(OCCCO)c(SSc2cnn(-c3ccccc3)c(=O)c2OCCCO)cnn1-c1ccccc1`: the IC50 – broadly, the concentration that inhibits the measured activity by half – in assay [1] turned out to be 0.84 µM.

In the case of `O=S(=O)(O)c1cccc(-c2nn3c(-c4ccncc4)nnc3s2)c1`, the IC50 in assay [2] turned out to be 9.3 µM.

With `Clc1ccc(C2Nc3cccc4cccc(c34)N2)cc1`, half-maximal inhibition in assay [3] (IC50) required 89 µM.

As to `COc1ccc(-c2coc3cc(O)ccc3c2=O)cc1` [FORMONONETIN], in assay [4], the half-maximal inhibitory concentration (IC50) amounted to 74.9 µM. Besides, the minimal inhibitory concentration (MIC) (as a rule, the smallest concentration in the dilution series that meets the test's criterion for growth inhibition) in [5] was greater than 478 µM.

The molecule `COc1cc(/C=C/C(=O)CC(=O)/C=C/c2ccc(O)c(OC)c2)ccc1O` [CURCUMIN] had an MIC in [6] greater than 543 µM.

Turning to `CCSSc1ccccc1C(=O)NCC(=O)N(C1CCCCC1)C1CCCCC1`, the Ratio in [7] is 6.39 10^4/M/min.

As to `O=c1cc(CO)oc(C(Nc2ccccn2)c2cccc(F)c2)c1O` (stereo unspecified), the Ratio in assay [7] is 2.4 10^3/M/min. In [6], this molecule yielded an MIC greater than 1580 µM.

For `C=CS(=O)(=O)c1ccccc1`, in [8], the Ratio came to 20.1 M⁻¹ min⁻¹.

`c1cc(-c2nnc3sc(-c4ccc5[nH]cnc5c4)nn23)ccn1` returned an IC50 in [2] of 17 µM.

`O=c1c(OCCO)c(SSc2cnn(-c3ccccc3)c(=O)c2OCCO)cnn1-c1ccccc1` showed a concentration for half-maximal inhibition (IC50) in assay [1] of 0.22 µM.

Turning to `CSSc1ccccc1C(=O)NCC(=O)NC12CC3CC(CC(C3)C1)C2`, the minimal inhibitory concentration (MIC) in assay [9] worked out at 16 µM (≈ 6.25 µg/mL). In assay [7], the Ratio is 5.93 10^4/M/min.

Regarding `O=C(O)COc1ccccc1C1Nc2cccc3cccc(c23)N1`, half-maximal inhibition in assay [3] (IC50) was put at 47.2 µM.

For `CSSc1ccccc1C(=O)N1CCC[C@H]1C(=O)NC12CC3CC(CC(C3)C1)C2`, the MIC in [9] stood at 116 µM (≈ 50 µg/mL). For the same molecule, the Ratio in [7] is 5.75 10^4/M/min.

`O=c1cc(CO)oc(C(Nc2ccccn2)c2ccc(C(F)(F)F)cc2)c1O` (stereo unspecified): in [7], the Ratio is 1.7 10^3/M/min. Further, in assay [6], the minimum inhibitory concentration (MIC) is greater than 1300 µM.

As for `CCOC(=O)/C(=N\Nc1ccc(Cl)c(Cl)c1)C(=O)c1cc(C)nn1CC`, the IC50 was greater than 200 µM in [10] and 1.7 µM in [11].

On to `CC(C)C[C@H](N)C(=O)N1CCC[C@H]1C(=O)N[C@@H](CCCNC(=N)N)C(=O)N[C@@H](CC(=O)O)C(=O)N[C@@H](C)C(=O)O` (H-LPRDA-OH), for which the concentration for half-maximal inhibition (IC50) in assay [12] was 10.6 µM.

Take `CC(C)C[C@H](NC(=O)[C@H](C)NC(=O)[C@@H](N)Cc1ccc(O)cc1)C(=O)N1CCC[C@H]1C(=O)N[C@@H](CCC(=O)O)C(=O)N[C@H](C)P(=O)(O)CCC(=O)N[C@@H](CCC(=O)O)C(=O)N[C@@H](CCC(=O)O)C(N)=O` (H-YALPE[X1]EE-NH2): the IC50 in assay [13] is 10000 µM.

As for `COc1cc(/C=C/C(=O)O)ccc1O` [FERULATE], in assay [14], the midpoint of inhibition, the IC50, lay at 1320 µM. Moreover, the MIC in assay [6] is greater than 5750 µM.

On to `CCSSc1ccccc1C(=O)NCC(=O)Nc1cccc(Oc2ccccc2)c1`, for which the Ratio in [7] was 7.24 10^4/M/min.

On to `COc1cc(/C=C/C(=O)CC(=O)/C=C/c2ccc(O)cc2)ccc1O`, for which, in assay [15], half-maximal inhibition (IC50) was put at 70.3 µM. In [6], this molecule registered a minimal inhibitory concentration (MIC) greater than 543 µM.

Turning to `O=c1c(OCCCO)c(SSc2cnn(-c3cccc(F)c3)c(=O)c2OCCCO)cnn1-c1cccc(F)c1`, in assay [1], the half-inhibitory concentration (IC50) was determined as 0.02 µM. Besides, the Ratio in [7] is 1.8 10^4/M/min.

As to `CC(=O)/C(=N/Nc1ccc(Cl)c(Cl)c1)C(=O)O`, the IC50 in [10] came out at 50 µM. For the same molecule, in assay [6], the minimum inhibitory concentration (MIC) is greater than 270 µM.

As for `CCSSc1ccccc1C(=O)NCC(=O)NCC1CCCCC1`, the Ratio in [7] is 7.13 10^4/M/min.

In [1], `CCOc1c(SSc2cnn(-c3cccc(C(=N)N)c3)c(=O)c2OCC)cnn(-c2cccc(C(=N)N)c2)c1=O` displayed an IC50 of 0.54 µM. Also, the Ratio in assay [7] was 3.6 10^4/M/min.

As to `COc1cc2c(cc1O)OC(c1ccccc1)CC2=O` (stereo unspecified), in [4], the half-inhibitory concentration (IC50) stood at 96.1 µM. In addition, the MIC in assay [5] was greater than 4700 µM.

`Cc1cc(C(=O)/C(=N/Nc2c(F)cccc2F)C(=O)O)no1`: the IC50 is 76.5 µM in [10] and 29 µM in [11]. The MIC in [6] was greater than 200 µM.

For the molecule `O=[N+]([O-])c1ccc(C2Nc3cccc4cccc(c34)N2)cc1`, the IC50 in assay [3] worked out at 80 µM.
